Test results reported in patent US20150219673A1, “THE USE OF GENE EXPRESSION PROFILING AS A BIOMARKER FOR ASSESSING THE EFFICACY OF HDAC INHIBITOR TREATMENT IN NEURODEGENERATIVE CONDITIONS” (Massachusetts Institute of Technology, priority 2012, published 2015).

Assays:
cognitive function = conditions: cited from earlier work; for cognitive function in vivo: see US 2011/0224303
[1] = test system: peripheral blood mononuclear cells of 5XFAD mice; assay: RNA sequencing of peripheral blood mononuclear cells of 5XFAD mice after CI-994 treatment; format: in vivo, mouse; conditions: PBMC, CI-994 1 mg/kg i.p. every other day 1 month, FIG. 2
Experimental: After completion of treatment, blood was drawn and peripheral blood mononuclear cells were rapidly isolated. The cells were washed with PBS and total RNA was extracted using the RNeasy kit (Qiagen). RNA integrity was analyzed using the Bioanalyzer 2100 (Agilent) and the libraries were prepared using the Ovation Ultralow Library System kit (NuGen). Libraries were then pooled in equal amounts and high-throughput sequencing was performed on an Illumina HiSeq 2000 platform. Two individual biological replicates per condition were sequenced.

[2] = test system: hippocampus of 5XFAD mice; assay: RNA sequencing of hippocampus of 5XFAD mice after chronic CI-994 treatment; format: in vivo, mouse; conditions: 5XFAD mice hippocampus
Excerpt: To test if high-throughput genome-wide RNA sequencing can be readily used a biomarker for HDAC inhibitor-mediated treatment of cognitive decline associate with AD, a mouse model of familial AD, the SXFAD mice were used. These mice harbor point mutations in the AD-related pathogenic presenilin and amyloid precursor protein pathways, and recapitulate the majority of human AD pathologies, including amyloid-β deposition, neurodegeneration, and cognitive impairments. […] After completion of treatment, mice were sacrificed, their brain regions dissected, and total RNA extracted of the hippocampus, a brain region important for memory formation and storage. The RNA was quality controlled using Agilent's bioanalyzer 5' and 3'-end labeled and sequenced on an Illumina HiSeq sequencer with 200 million reads per sample. Sequence reads were aligned to the mouse genome, and quality-filtered. Differential analysis was then conducted using Cuffdiff with IIlumina iGenome mm9 UCSC gene annotation.

[3] = CI-994 1 mg/kg i.p. daily 1 month

SMILES: CC(=O)Nc1ccc(C(=O)Nc2ccccc2N)cc1 [CI-994, 4-(acetylamino)-N-(2-aminophenyl)benzamide]
- AD-related cognitive impairments (cognitive function; earlier finding stated for CI-994): reduce AD-related cognitive impairments
- cognitive function in vivo (cognitive function): improve cognitive function in vivo
- number of differentially expressed genes (wild type vs 5XFAD) rescued to control levels [1]: 69 genes
- 1700026L06Rik expression level [2, 3]: 0.5624
- 4833427G06Rik expression level [2, 3]: 1.156
- Abhd2 expression level [2, 3]: 16.6349
- Acaa2 expression level [2, 3]: 15.6611
- Acacb expression level [2, 3]: 0.6669
- Acss3 expression level [2, 3]: 0.8644
- Adcy1 expression level [2, 3]: 121.693
- Aebp1 expression level [2, 3]: 4.334
- Aldh1a1 expression level [2, 3]: 16.8375
- Aldh2 expression level [2, 3]: 35.3667
- Als2cr4 expression level [2, 3]: 14.5748
- Angptl2 expression level [2, 3]: 1.519
- Antxr1 expression level [2, 3]: 4.106
- Apln expression level [2, 3]: 9.121
- Arc expression level [2, 3]: 77.622
- Arhgap28 expression level [2, 3]: 0.18
- Arsg expression level [2, 3]: 13.3427
- Atf4 expression level [2, 3]: 63.7327
- Atp2b3 expression level [2, 3]: 41.3436
- Atp7a expression level [2, 3]: 1.987
- Atp11c expression level [2, 3]: 3.649
- B230217C12Rik expression level [2, 3]: 41.8821
- BC049635 expression level [2, 3]: 0.514
- Baiap2l1 expression level [2, 3]: 0.6224
- Bmp6 expression level [2, 3]: 5.713
- Bmp7 expression level [2, 3]: 2.931
- Brwd3 expression level [2, 3]: 1.786
- Bst2 expression level [2, 3]: 4.307
- Btbd3 expression level [2, 3]: 34.9585
- C1ql2 expression level [2, 3]: 39.6924
- C1qtnf5 expression level [2, 3]: 15.0312
- C230081A13Rik expression level [2, 3]: 8.241
- C530008M17Rik expression level [2, 3]: 17.1167
- Cabp7 expression level [2, 3]: 205.981
- Car14 expression level [2, 3]: 6.584
- Ccdc141 expression level [2, 3]: 2.317
- Ccnd1 expression level [2, 3]: 15.4148
- Cdh3 expression level [2, 3]: 0.3686
- Cdr2 expression level [2, 3]: 5.994
- Cndp1 expression level [2, 3]: 0.2514
- Cnst expression level [2, 3]: 10.5531
- Col4a3 expression level [2, 3]: 0.1459
- Col4a4 expression level [2, 3]: 0.1702
- Col17a1 expression level [2, 3]: 0.02351
- Coro2b expression level [2, 3]: 59.6533
- Cpn1 expression level [2, 3]: 0.2381
- Cpne7 expression level [2, 3]: 72.8282
- Cpt1b expression level [2, 3]: 0
- Crtac1 expression level [2, 3]: 33.2962
- Crtap expression level [2, 3]: 2.382
- Ctnnal1 expression level [2, 3]: 4.538
- Cul4b expression level [2, 3]: 14.4206
- Cxcl14 expression level [2, 3]: 62.1186
- Dab2 expression level [2, 3]: 2.765
- Dclk3 expression level [2, 3]: 6.883
- Dcn expression level [2, 3]: 18.2706
- Dgkh expression level [2, 3]: 8.277
- Dio2 expression level [2, 3]: 13.4167
- Dmrt3 expression level [2, 3]: 0.6692
- Dnahc11 expression level [2, 3]: 0.2181
- Doc2b expression level [2, 3]: 33.8561
- Dpep1 expression level [2, 3]: 0.1399
- Dsg2 expression level [2, 3]: 0.9993
- Dsp expression level [2, 3]: 8.258
- Ephx1 expression level [2, 3]: 17.8668
- Eps8l2 expression level [2, 3]: 1.379
- F11r expression level [2, 3]: 3.438
- Fads2 expression level [2, 3]: 8.701
- Fam38a expression level [2, 3]: 0.6613
- Fam163b expression level [2, 3]: 67.8893
- Fras1 expression level [2, 3]: 0.749
- Fst expression level [2, 3]: 1.755
- Fxyd1 expression level [2, 3]: 37.5709
- Fzd4 expression level [2, 3]: 3.613
- Gabra2 expression level [2, 3]: 45.2624
- Galm expression level [2, 3]: 1.687
- Gas6 expression level [2, 3]: 39.2248
- Glb1l2 expression level [2, 3]: 0.5483
- Glul expression level [2, 3]: 251.125
- Gm221 expression level [2, 3]: 0.499
- Gm853 expression level [2, 3]: 0
- Gm11744 expression level [2, 3]: 2.594
- Gng7 expression level [2, 3]: 64.066
- Gprc5c expression level [2, 3]: 1.254
- Grm2 expression level [2, 3]: 13.2878
- Gyltl1b expression level [2, 3]: 0.192
- Hapln1 expression level [2, 3]: 10.6547
- Hbb-b2 expression level [2, 3]: 3.714
- Hemk1 expression level [2, 3]: 4.074
- Homer2 expression level [2, 3]: 14.9404
- Hsd11b1 expression level [2, 3]: 28.1849
- Hspg2 expression level [2, 3]: 0.7372
- Ifi27l1 expression level [2, 3]: 36.0763
- Igfbp5 expression level [2, 3]: 38.2003
- Igfbp7 expression level [2, 3]: 18.1462
- Igfn1 expression level [2, 3]: 0.1271
- Iqgap1 expression level [2, 3]: 3.038
- Isoc1 expression level [2, 3]: 14.1426
- Kcnj2 expression level [2, 3]: 3.205
- Kcnj10 expression level [2, 3]: 64.1636
- Kif9 expression level [2, 3]: 1.8759
- Kit expression level [2, 3]: 18.7665
- Klhdc7a expression level [2, 3]: 4.613
- Lama5 expression level [2, 3]: 0.8869
- Lamp2 expression level [2, 3]: 40.9038
- Leprel4 expression level [2, 3]: 7.907
- Lingo1 expression level [2, 3]: 88.754
- Llgl2 expression level [2, 3]: 0.4373
- Lmx1a expression level [2, 3]: 0.5034
- Loxl1 expression level [2, 3]: 1.486
- Loxl2 expression level [2, 3]: 0.1912
- Lrp5 expression level [2, 3]: 2.432
- Lrp10 expression level [2, 3]: 14.6733
- Ltc4s expression level [2, 3]: 7.102
- Lypd1 expression level [2, 3]: 47.9728
- Mccc1 expression level [2, 3]: 5.41
- Mfsd7c expression level [2, 3]: 0.65
- Mmp15 expression level [2, 3]: 6.699
- Mpp7 expression level [2, 3]: 1.162
- Myoc expression level [2, 3]: 11.9051
- Myof expression level [2, 3]: 0.8629
- Ndst4 expression level [2, 3]: 5.129
- Nek11 expression level [2, 3]: 0.5801
- Nid2 expression level [2, 3]: 1.141
- Nos1 expression level [2, 3]: 8.7895
- Npas4 expression level [2, 3]: 3.8842
- Npr1 expression level [2, 3]: 1.7036
- Nqo1 expression level [2, 3]: 3.794
- Nt5dc1 expression level [2, 3]: 1.205
- Oca2 expression level [2, 3]: 0.467
- Odz4 expression level [2, 3]: 7.194
- Ooep expression level [2, 3]: 0.07202
- Pcp4l1 expression level [2, 3]: 50.8954
- Pgcp expression level [2, 3]: 8.02
- Phactr2 expression level [2, 3]: 6.295
- Pla2g4e expression level [2, 3]: 1.85
- Plek2 expression level [2, 3]: 0.4301
- Plekha2 expression level [2, 3]: 12.177
- Pltp expression level [2, 3]: 36.9312
- Plxnb2 expression level [2, 3]: 10.316
- Polr1a expression level [2, 3]: 5.4566
- Pon1 expression level [2, 3]: 0.12
- Ppfibp2 expression level [2, 3]: 2.53
- Ppp1r1a expression level [2, 3]: 67.7123
- Ppp1r1b expression level [2, 3]: 37.5707
- Prelp expression level [2, 3]: 9.53
- Prox1 expression level [2, 3]: 14.3616
- Prps2 expression level [2, 3]: 12.0363
- Ptpn14 expression level [2, 3]: 1.315
- Rab20 expression level [2, 3]: 1.273
- Rai14 expression level [2, 3]: 1.053
- Rbp3 expression level [2, 3]: 0.5204
- Rd3 expression level [2, 3]: 0.6656
- Ripk4 expression level [2, 3]: 0.1565
- Rrh expression level [2, 3]: 0.05235
- Rsph4a expression level [2, 3]: 2.9407
- Scg5 expression level [2, 3]: 219.826
- Scn4b expression level [2, 3]: 8.643
- Scube1 expression level [2, 3]: 4.586
- Scube3 expression level [2, 3]: 0.6281
- Sdk1 expression level [2, 3]: 0.6821
- Serpinb1b expression level [2, 3]: 0.9169
- Sfrp5 expression level [2, 3]: 0.5384
- Slc4a10 expression level [2, 3]: 46.0086
- Slc5a3 expression level [2, 3]: 5.289
- Slc12a2 expression level [2, 3]: 20.5749
- Slc12a4 expression level [2, 3]: 5.898
- Slc12a7 expression level [2, 3]: 1.124
- Slc16a2 expression level [2, 3]: 14.2113
- Slc16a4 expression level [2, 3]: 2.157
- Slc16a9 expression level [2, 3]: 1.385
- Slc16a12 expression level [2, 3]: 1.226
- Slc22a6 expression level [2, 3]: 0.7873
- Slc23a2 expression level [2, 3]: 27.4105
- Slc25a39 expression level [2, 3]: 30.7081
- Slc29a4 expression level [2, 3]: 11.9409
- Slc37a2 expression level [2, 3]: 0.8387
- Slc39a4 expression level [2, 3]: 1.073
- Slco1c1 expression level [2, 3]: 20.1851
- Smpdl3a expression level [2, 3]: 19.7502
- Sod3 expression level [2, 3]: 6.1
- Spag16 expression level [2, 3]: 0.4608
- Spint2 expression level [2, 3]: 15.9511
- Sptlc3 expression level [2, 3]: 0.2346
- Ssfa2 expression level [2, 3]: 10.0587
- Stk39 expression level [2, 3]: 28.2125
- Stra6 expression level [2, 3]: 4.817
- Tbc1d1 expression level [2, 3]: 4.993
- Tbc1d2 expression level [2, 3]: 0.8273
- Tbc1d9 expression level [2, 3]: 19.741
- Tbcel expression level [2, 3]: 17.0147
- Tcn2 expression level [2, 3]: 9.139
- Tead1 expression level [2, 3]: 4.075
- Tgfbi expression level [2, 3]: 1.202
- Tgfbr3 expression level [2, 3]: 3.88
- Timp2 expression level [2, 3]: 84.9023
- Tinagl1 expression level [2, 3]: 2.32
- Tjp3 expression level [2, 3]: 0.9513
- Tlr2 expression level [2, 3]: 1.035
- Tmem27 expression level [2, 3]: 0.3657
- Tmem98 expression level [2, 3]: 10.1715
- Tmem108 expression level [2, 3]: 8.4143
- Tns1 expression level [2, 3]: 3.868
- Tspan33 expression level [2, 3]: 15.0442
- Ttc21a expression level [2, 3]: 1.107
- Vamp8 expression level [2, 3]: 13.404
- Vcam1 expression level [2, 3]: 10.2949
- Vcp expression level [2, 3]: 1.545
- Wdfy1 expression level [2, 3]: 7.05
- Wdr16 expression level [2, 3]: 1.6294
- Wfs1 expression level [2, 3]: 43.1125
- Zfp185 expression level [2, 3]: 1.3415
- Zfp605 expression level [2, 3]: 4.398
- rescue of the downregulated genes [2, 3]: 100%
- rescue of the differentially expressed genes to levels comparable to control mice ([2]; CI-994 1 mg/kg i.p. daily 1 month, FIG. 1): rescued to near completion
- number of genes rescued by CI-994 treatment ([2]; FIG. 1 heatmap, significance level p<0.05): 239 genes

SMILES: Nc1ccc(C(=O)Nc2ccccc2N)cc1 [dinaline]
- cognitive function in vivo (cognitive function): improve cognitive function in vivo
